“Also recorded” adds a separate entry of the source.
How the values were obtained:
Akt (PKB) = experiment: Erythropoietin-dependent phosphorylation of Akt (PKB) in 3T3-L1 adipocytes (Western blot); type: cell-based, mouse; details: 25 mM glucose; various concentrations of erythropoietin
Akt (protein kinase B) = experiment: Insulin-induced phosphorylation of Akt in 3T3-L1 adipocytes (Western blot); type: cell-based, mouse; details: cells grown on m-Tyr or o-Tyr; insulin 200 and 400 nmol/l
Experimental: (§1) Primary cultures of mouse embryo fibroblasts (3T3-L1) were purchased from ATCC (Manassas, US). Early passages of 3T3-L1 fibroblasts were cultured in Dulbecco's modified Eagle medium ((DMEM, Invitrogen, CAT number: 41966-029; Sigma Aldrich CAT number: D6046) supplemented with 10% Fetal Bovine Serum (Gibco, CAT number: 16170-078), 100 U/ml penicillin and 0.1 mg/ml streptomycin (Gibco, CAT number: 15070-063) and 398 nM p-, m-, or o-Tyr. DMEM contained 25 or 5 mM glucose (depending on the experiment), L-glutamine, and pyruvate. Cells were grown in a humidified incubator at 37° C. and 5% CO2. Differentiation medium consisted of DMEM supplemented with 10% Fetal Bovine Serum (FBS, Gibco, Csertex, Budapest, Hungary, CAT number: 10106-169) (FBS), to which a cocktail was added containing […] isobuthylmethylxanthine (Sigma Aldrich, CAT number: I 5879), 0.17 nM insulin (Sigma Aldrich, CAT number: I 9278) and 250 nM dexamethasone (Sigma Aldrich, CAT number: 861871). From Day 4 onward, cells were maintained in DMEM/10% FBS containing […] insulin with a media change every other day until experimental treatments were initiated. For all treatments, cells were incubated overnight in serum-deprived medium after 90% of the cell population reached the adipocyte phenotype.
Following the treatment cells were washed twice with Saline (4° C.) to remove any trace of the medium, then exposed to 80 μL lysis buffer/plate, containing 1.15% Triton X, 1M Trisbase, pH 7.4, 0.5 M EDTA, pH 8, 0.2 M EGTA, pH 7, 0.1 M dithiothreitol (DTT), 5 mg/ml phenylmethylsulfonyl fluoride (PMSF), 0.1 M Na3VO4, 5 mg/ml leupeptin, 5 mg/ml aprotinin, Phoshatase Inhibitor Coctail 1 and 2 (Sigma Aldrich, CAT number: P2850 and P5726). Adypocytes were scraped off mechanically and then frozen at −70° C.
The samples of EC lysates were sonicated (2 min) and centrifuged (10 min, 13,000 rpm, at 4° C.). Protein content of samples was determined by the Bradford method using bovine serum albumin as a standard Bio-Rad Benchmark Plus. Samples were solubilized in a buffer of 100 mM Tris-HCl (pH 6.8), 4.0% sodium dodecyl sulphate (SDS), 20% glycerol, 200 mM DTT, and 0.2% bromophenol blue. […]
Membranes were incubated overnight with the immunoglobulin G (IgG) monoclonal antibodies diluted to 1:1000 in TBS-T (0.1%), containing 5% bovine serum (BS). […] Blots were detected using enhanced chemiluminescence (ECL; Pierce Biotech, Bio-Rad, Budapest, Hungary). Computerized densitometry (integrated optical density) of the specific bands was analyzed with Scion Image for Windows Software. […]

3T3-L1 adipocytes = experiment: Insulin-dependent uptake of deoxy-D-glucose 2-[1 2-3H(N)] into 3T3-L1 adipocytes; type: cell-based, mouse
Experimental: as §1
Cells were incubated in glucose free DMEM (Gibco, Csertex, Hungary) for 30 minutes, then treated with 2, 20, 200 or 400 nmol/l insulin for 100 minutes. Simultaneously 1 μCi/ml deoxy-D-glucose 2-[1 2-3H(N)] (3.7×104 Bq/ml) (Izotóp Intézet, Hungary) was added to the plates for 100 minutes Cells were scraped into the medium and centrifuged for 5 minutes at 1000 rpm. The sediment was dissolved in 70 μl of lysis-buffer and glucose uptake was assessed by scintillation counting measuring 30 μl of the sample with a Beckman LS 5000 TD counter in counts per minute (CPM) for five minutes each, using an average activity as the outcome. Samples were frozen overnight at −70° C. and protein concentration was measured using a Hitachi spectrophotometer. Results were normalized for protein content (Kaddai2009).

[1] = tested on: thoracic and abdominal aorta, renal and femoral arteries; experiment: Insulin-induced relaxation of isolated arterial segments after oral tyrosine isomer supplementation of rats; type: in vivo, Sprague-Dawley rats
Experimental: The experiments were carried out with the permission of the Hungarian Local Animal Experiment Committee. Shortly after weaning male CFY rats (a strain of the Sprague-Dawley rat) were placed in individual cages and held on regular diet. After two hours of fasting animals (4-5 week-old, 80-140 g) were loaded with 1.76 mg/die para-, meta- or ortho-tyrosine (p-, m-, o-tyr; Sigma-Aldrich, Inc., St. Louis, Mo. 63178, USA) dissolved in saline or vehicle (saline only) by gavage (per os) six days of the week. After one month treatment, animals were either anaesthetized with ether and were decapitated with a guillotine or p-, m-, o-tyr and vehicle supplementation was discontinued (“washout” period) and they were sacrificed […] (FIG. 8.A). The descending thoracic and abdominal aorta, renal and femoral arteries were removed and cleaned from connective tissue (FIG. 19). Sections were immediately hydrolyzed for HPLC analysis or were used for vascular reactivity studies.
In further tyrosine isomer incorporation studies when effects of chronic oral p-Tyr and o-Tyr supplementation of rats on the o-Tyr level and insulin-induced relaxation of isolated arterial segments were studied, 18 Male Sprague-Dawley rats (5-6 week-old) were used. Rats were orally supplied with either 1.76 mg/die of p-Tyr or o-Tyr or vehicle during six days per week for four weeks. […] At the end of four-week treatment, HPLC and vasomotor studies were performed. In another group of rats, p-Tyr/o-Tyr supplementation was discontinued for four weeks (“washout” period), after which they were sacrificed for HPLC and vasomotor studies.
The modified method of Fésüs et al. (Fésüs2007) was used. The distal parts of the vessels were dissected into 2 mm long segments in ice-cold Krebs buffer and rings were mounted on two stainless steel wires (40 μm in diameter) in a Danish Multimyograph Model 610M (DMT-USA Inc., Atlanta, Ga., USA). Vessels were bathed in Krebs buffer (containing 119 mM NaCl, 4.7 mM KCl, 1.2 mM KH2PO4, 25 mM NaHCO3, 1.2 mM Mg2SO4, 11.1 mM glucose, 1.6 mM CaCl2*2H2O, pH 7.4) and gassed with 5% CO2 and 95% O2 at 37° C. The resting tension/internal circumference relationship for each vessel was determined and then the internal circumference was set to 0.9×L100, where L100 is the internal circumference the vessel would have had in vivo when relaxed under a transmural pressure of 100 mmHg After this normalization procedure vessels were allowed to stabilize for 30 min, and then isometric tension was continuously recorded. Rings were preconstricted with 100 nM epinephrine. After reaching a stabile contraction plateau, relaxant responses to increasing doses of insulin were assessed. The rate of relaxation was expressed as percentage of the contraction evoked by epinephrine (100%). Para-, meta-, ortho-tyrosine or vehicle were added to the vessel chamber 10 minutes before the addition of epinephrine and 30 minutes before the addition of insulin.

N[C@@H](Cc1cccc(O)c1)C(=O)O [m-Tyr, Meta-L-tyrosine]
EPO-dependent Akt phosphorylation (Akt (PKB)): inhibited the normal increase in the Akt phosphorylation | Insulin-induced Akt phosphorylation (Akt (protein kinase B)): inhibited the insulin-induced Akt-phosphorylation; also recorded: could not be significantly enhanced by insulin | Insulin-induced glucose uptake at equimolar concentrations with p-Tyr (3T3-L1 adipocytes; 72-72 mg/l m-Tyr or o-Tyr and p-Tyr, insulin 400 nM): fully inhibit insulin-induced glucose uptake; also recorded: insulin had no effect on glucose uptake at all | Insulin-dependent deoxy-D-glucose uptake (3T3-L1 adipocytes; cells grown 11 days on medium with the tyrosine isomer + 5 mM glucose, insulin 2, 20, 200, 400 nM): no insulin effect could be verified | Baseline glucose uptake (3T3-L1 adipocytes; cells grown on m-Tyr- or o-Tyr-containing medium (72 mg/l) for different time periods, no insulin): did not show a marked change | Insulin-induced glucose uptake, time dependence (3T3-L1 adipocytes; m-Tyr or o-Tyr 72 mg/l for different time periods, insulin 400 nM, time-dependent manner): blocked | Ability to inhibit insulin-induced glucose uptake, dependence on concentration (3T3-L1 adipocytes; m-Tyr or o-Tyr 2.25-72 mg/l with p-Tyr 72 mg/l, insulin 400 nM): concentration-dependent | Insulin-induced relaxation, abdominal aorta, femoral (and renal) arteries ([1]; 4th week, 1.76 mg/die per os, compared to control): significantly diminished response to insulin | Insulin-induced relaxation, thoracic aorta ([1]; 4th week, 1.76 mg/die per os, compared to control/other groups): did not observe any significant further decline of response to insulin | Chronic effects on insulin-induced vasorelaxation after washout ([1]; 8th week, 4 weeks washout, all segments): completely abolished

— US20140128472A1, “TREATMENT AND PREVENTION OF DISEASES RELATED TO OXIDATIVE STRESS” (UNIVERSITY OF PÉCS, priority 2011, published 2014)
